# Laboratory results: ChEMBL document CHEMBL5226309, “Synthetic RNA Modulators in Drug Discovery” (J Med Chem, 2021)
# How the values were obtained:
# [1] = Inhibition of miR-21 (unknown origin) at 1 uM by differential scanning fluorometry analysis relative to control
# [2] = Downregulation of alpha-Synuclein level in human SH-SY5Y cells at 5 uM relative to control; assay type: functional
# [3] = Antiproliferative activity against human U87 cells assessed as reduction in cell viability by XTT assay; assay type: functional, cell-based, U-87MG ATCC; details: U-87 MG
# [4] = tested on: HeLa; test: Inhibition of miR-21 in human HeLa cells assessed as reduction in relative light unit at 10 uM by luciferase reporter assays relative to control; assay type: cell-based
# [5] = tested on: A498; test: Antiproliferative activity against human A498 cells assessed as reduction in cell viability by XTT assay; assay type: functional, cell-based
# [6] = tested on: Hepatitis C virus; test: Antiviral activity against HCV JFH-1 infected in human Huh-7 cells assessed as reduction in viral replication measured after 48 hrs by RT-PCR analysis relative to control; assay type: functional, Hepacivirus hominis; design: scale not given: the % may be the effect or the level left
# [7] = Downregulation of miR-122 expression in human Huh-7 cells at 10 uM incubated for 48 hrs by RT-PCR analysis relative to control; assay type: functional
# [8] = Binding affinity to Precursor microRNA-372 (unknown origin) assessed as dissociation constant
# [9] = Inhibition of Precursor microRNA-372 (unknown origin) assessed as inhibition of Dicer-induced pre-miR-372 cleavage
# [10] = Inhibition of 5'FAM-labeled and 3'DAB-labeled Precursor microRNA-372 (unknown origin) assessed as inhibition of Dicer-induced pre-miR-372 cleavage by measuring fluorescence incubated for 30 min in presence of human recombinant Dicer by FRET Dicer assay
# [11] = Inhibition of 5'FAM-labeled and 3'DAB-labeled Precursor microRNA-373 (unknown origin) assessed as inhibition of Dicer-induced pre-miR-373 cleavage by measuring fluorescence incubated for 30 min in presence of human recombinant Dicer by FRET Dicer assay
# [12] = Binding affinity to DNA hairpin (unknown origin) assessed as dissociation constant
# [13] = Inhibition of Precursor microRNA-96 (unknown origin) relative to control; details: concentration not given here
# [14] = Binding affinity to Precursor microRNA-96 (unknown origin) assessed as dissociation constant
# [15] = Binding affinity to miR-21 (unknown origin) assessed as dissociation constant
# [16] = Binding affinity to miR-21 (unknown origin) at 5 uM by differential scanning fluorometry analysis relative to control
# [17] = Binding affinity to TAR mRNA assessed as dissociation constant by ITC analysis
# [18] = Displacement of Tat from TAR mRNA by FRET analysis
# [19] = Inhibition of miR-21 in human AGS cells assessed as decrease in pre-miR-21 level; assay type: cell-based
# [20] = tested on: AGS; test: Inhibition of miR-21 in human AGS cells assessed as decrease in pre-miR-21 level relative to control; assay type: cell-based; details: dose or concentration not given here
# [21] = target: T1, Muscleblind-like protein 1 (Homo sapiens) (UniProt Q9NR56); test: Inhibition of MBNL1 (unknown origin) in human GDM-1 cells assessed as rescue of IR exon splicing defect at 100 pM by PCR analysis relative to control; assay type: cell-based
# T1 sequence (whole entry): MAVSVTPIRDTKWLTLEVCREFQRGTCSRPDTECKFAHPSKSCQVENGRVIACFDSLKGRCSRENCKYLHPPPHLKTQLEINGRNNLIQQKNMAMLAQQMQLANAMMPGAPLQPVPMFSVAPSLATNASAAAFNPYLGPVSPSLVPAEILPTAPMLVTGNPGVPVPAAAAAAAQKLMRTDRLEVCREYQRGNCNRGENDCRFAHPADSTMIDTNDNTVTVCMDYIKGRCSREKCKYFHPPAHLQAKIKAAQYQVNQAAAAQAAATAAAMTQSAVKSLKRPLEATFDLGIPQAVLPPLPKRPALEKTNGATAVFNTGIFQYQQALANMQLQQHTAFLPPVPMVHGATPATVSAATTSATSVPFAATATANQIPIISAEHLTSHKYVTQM
# [22] = Binding affinity to miR-18a (unknown orgin) assessed as dissociation constant
# [23] = Inhibition of miR-18a (unknown orgin) production
# [24] = tested on: AGS; test: Antiproliferative activity against human AGS cells assessed as reduction in cell viability at 25 uM measured after 4 days by CellTiter96 assay relative to control; assay type: functional; details: 96 h, time 4 day
# [25] = tested on: HeLa; test: Induction of apoptosis in human HeLa cells; assay type: functional
# [26] = Induction of apoptosis in human U-87 MG cells; assay type: functional, U-87MG ATCC
structure (smiles),measurement,setting,value
COc1ccc(NCC(O)Cn2c3ccc(Br)cc3c3cc(Br)ccc32)cc1 (centres undefined),inhibition,[1],59%
c1cc(C2=NCCN2)ccc1Oc1ccc(-c2cc3ccc(C4=NCCN4)cc3[nH]2)cc1,Activity,[2],40%
C#CCOc1ccc(-c2noc(-c3nnn(-c4cccc(/C(C)=N/O)c4)c3N)n2)cc1,IC50,[3],3.3 µM
same,RLU,[4],2.19
same,IC50,[5],100 µM
O=C(Nc1ccc2ccccc2c1)c1ccc(Cl)cc1Cl,Activity,[6],48%
same,Activity,[7],72%
CNc1ccc(C2c3ccccc3N=C(NCCCNCCCCNCCCN)C2(C)C)cc1 (centres undefined),Kd,[8],0.15 µM
same,IC50,[9],1.06 µM
NC[C@@H]1O[C@H](O[C@H]2[C@@H](O)[C@H](O[C@@H]3[C@@H](O)[C@H](N)C[C@H](N)[C@H]3O[C@H]3O[C@H](CN)[C@@H](O)[C@H](O)[C@H]3N)O[C@@H]2Cn2cc(CCC(=O)Nc3ccc(-c4csc(NC(=O)c5ccc(N)cc5)n4)cc3)nn2)[C@H](N)[C@@H](O)[C@@H]1O,IC50,[10],1.08 µM
same,IC50,[11],1.1 µM
Cc1ccccc1NCC(O)Cn1c2ccc(Br)cc2c2cc(Br)ccc21 (centres undefined),inhibition,[1],47%
CCCN(CC(=O)N(CCC)CC(=O)N(CC(N)=O)Cc1cn(CCCNC(=O)CCCOc2c(C(C)(C)C)cc(-c3nc4cc(N5CCN(C)CC5)ccc4[nH]3)cc2C(C)(C)C)nn1)C(=O)CCCOc1cccc(-c2nc3ccc(-c4nc5ccc(N6CCN(C)CC6)cc5[nH]4)cc3[nH]2)c1,Kd,[12],> 50 µM
same,inhibition,[13],50%
same,Kd,[14],0.085 µM
NC[C@H]1O[C@H](O[C@H]2[C@H](O)[C@@H](O[C@H]3O[C@H](CNC(=O)CCC(=O)N[C@@H](Cc4ccccc4)C(=O)N[C@@H](CS)C(N)=O)[C@@H](O)[C@H](N)[C@H]3O)[C@H](N)C[C@@H]2N)[C@H](O)[C@@H](O)[C@@H]1O,Kd,[15],0.00436 µM
same,Activity,[16],140%
CN(C)CCCn1cc(CNC(=O)c2csc(NC(=O)c3csc(NC(=O)c4csc(N)n4)n3)n2)nn1,Kd,[17],6.7 µM
same,DC50,[18],10.6 µM
CC(=O)Nc1csc(-c2cccc(NC(=O)CCc3cn(C[C@H]4O[C@@H](O[C@@H]5[C@@H](O)[C@H](N)C[C@H](N)[C@H]5O[C@H]5O[C@H](CN)[C@@H](O)[C@H](O)[C@H]5N)[C@H](O)[C@@H]4O[C@H]4O[C@@H](CN)[C@@H](O)[C@H](O)[C@H]4N)nn3)c2)n1,IC50,[19],2.42 µM
same,inhibition,[20],100%
C#CC(=O)NCCCCCC(=O)N(CCN(C)C(=O)CCCOc1cccc(-c2nc3ccc(-c4nc5ccc(N6CCN(C)CC6)cc5[nH]4)cc3[nH]2)c1)CC(=O)N(C)[C@@H](C)C(=O)N(C)[C@@H](C)C(=O)N(C)[C@@H](C)C(=O)N(CCCCN(C)C(=O)CCCOc1cccc(-c2nc3ccc(-c4nc5ccc(N6CCN(C)CC6)cc5[nH]4)cc3[nH]2)c1)CC(=O)N(CCCN=[N+]=[N-])CC(N)=O,inhibition,[21],100%
CN1CCN(c2ccc(-c3ccc4nc(-c5cc(C(C)(C)C)c(OCCCC(=O)NCCCN=[N+]=[N-])c(C(C)(C)C)c5)[nH]c4c3)cc2)CC1,Kd,[22],32 µM
same,IC50,[23],10 µM
NC[C@@H]1O[C@H](O[C@H]2[C@@H](O)[C@H](O[C@@H]3[C@@H](O)[C@H](N)C[C@H](N)[C@H]3O[C@H]3O[C@H](CN)[C@@H](O)[C@H](O)[C@H]3N)O[C@@H]2Cn2cc(CCC(=O)Nc3ccc(-c4csc(NC(=O)c5ccc(Cl)cc5)n4)cc3)nn2)[C@H](N)[C@@H](O)[C@@H]1O,IC50,[10],0.98 µM
same,inhibition at 25 µM,[24],50%
same,IC50,[11],2.19 µM
C#CCNC(=O)c1ccc(NC(=O)c2ccccc2Br)cc1,Activity,[25],24%
same,Activity,[26],13%
